# Experiments:
# [1] = system: TGF-β1-induced SMAD signaling pathway; assay: RD SMAD reporter (RDSR) assay; format: cell-based; settings: Homo sapiens; 200 pg/ml rhTGF-beta1, 24 h
# Excerpt: TGF-beta (also referred to as TGF-β1) is a multifunctional, highly conserved cytokine with many key functions in development, cell growth and apoptosis, and plays a key role in the tissue repair response and functions as a potent immune modulator. TGF-β signaling is triggered when the activated TGF-β homodimer binds to the TGF-β receptor 2, which in turn leads to the recruitment and phosphorylation of TGF-β receptor 1 (ALK5). Activated TGF-β receptor 1 phosphorylates the signal transduction molecules SMAD2 and SMAD3. These bind to common mediator SMAD4 and translocate to the nucleus where they bind to short conserved DNA sequences called the SMAD binding element and induce the transcription of various target genes.
# A stable cellular reporter, the RD SMAD reporter (RDSR), was generated to test the ability of certain compounds disclosed herein to inhibit the canonical TGF-β1-induced SMAD signaling pathway in a cellular context. The RD SMAD reporter (RDSR) cell line was generated by stably integrating the SMAD cellular reporter plasmid (Promega, pGL4.48[luc2P/SBE/Hygro]) into the human rhabdomyosarcoma cell line RD (ATCC, CCL-136). Once SMAD signaling was triggered with, for example, the addition of TGF-beta1, receptor-activated SMADs bind the SMAD binding elements (SBEs) leading to the expression of intracellular luciferase.
# The rhabdomyosarcoma line RD (ATCC, CCL-136) was transfected with a SMAD reporter vector (Promega, E3671) and a polyclonal stable cell line was selected using hygromycin B. The transfected vector contained three copies of a Smad-binding element (SBE) that drives transcription of the luciferase reporter gene luc2P (Photinus pyralis). luc2P is a synthetically-derived luciferase sequence with humanized codon optimization that is designed for high expression and reduced anomalous transcription. The luc2P gene contains hPEST, a protein destabilization sequence, which allows luc2P protein levels to respond more quickly than those of luc2 to induction of transcription. The intracellular luciferase is quantified by the addition of equal volume (100 μl) of ONE-GLO substrate (Promega, E6120) and read within ten minutes on the Envision plate reader. The stable RDSR cell line was tested by evaluating the response to human TGF-beta1 (R&D Systems, 7754-BH-005) as well as myostatin (R&D Systems, 788-G8-010/CF) in a concentration-dependent manner after twenty-four hours of stimulation. […] For compound evaluation, the tool compounds (vactosertib and PF-06952229 (a TGFβR1 inhibitor available from MedChem Express HY-136244) were included as positive controls) or test compounds were incubated with cells for one hour at 37° C. then stimulated with 200 pg/ml rhTGF-beta1 for twenty-four hours. The activity of the reporter was determined with the addition of ONE-GLO (Promega) substrate, and luminescence counts were collected on the Envision plate reader (Perkin Elmer). The IC50 or EC50 was calculated using nonlinear regression curve fitting with graph pad prism software.
# A comparative RDSR analysis was performed using IC50 values for selected compounds and standards obtained using the RDSR assay protocol described in Example 3.
# The tool compounds vactosertib (an ALK5 inhibitor sourced from MedChem Express, HY-19928) and PF-06952229 (a TGFβR1 inhibitor) were included in the study as comparator compounds. Selected example compounds or comparator compounds were incubated with cells for one hour at 37° C. then stimulated with 200 pg/ml rhTGF-beta1 for twenty-four hours. The activity of the reporter was determined by adding ONE-GLO (Promega) substrate, and collecting luminescence counts on the Envision plate reader (Perkin Elmer).
# Each of the example compounds and comparator compounds were tested at drug concentrations of from 20 micromolar to 1 nanomolar, and the IC50 value for each was calculated using Graph Pad Prism software. DMSO was used as a negative control and all wells contained normalized DMSO concentrations. […]
# [2] = biological target: T1, ALK5 (Homo sapiens, UniProt P36897); assay: LanthaScreen Eu Kinase Binding Assay, ALK5; settings: 10-point titration, read-out: Kinase Inhibition: ALK5 IC50 (Lantha)
# T1 sequence (P36897 34-503): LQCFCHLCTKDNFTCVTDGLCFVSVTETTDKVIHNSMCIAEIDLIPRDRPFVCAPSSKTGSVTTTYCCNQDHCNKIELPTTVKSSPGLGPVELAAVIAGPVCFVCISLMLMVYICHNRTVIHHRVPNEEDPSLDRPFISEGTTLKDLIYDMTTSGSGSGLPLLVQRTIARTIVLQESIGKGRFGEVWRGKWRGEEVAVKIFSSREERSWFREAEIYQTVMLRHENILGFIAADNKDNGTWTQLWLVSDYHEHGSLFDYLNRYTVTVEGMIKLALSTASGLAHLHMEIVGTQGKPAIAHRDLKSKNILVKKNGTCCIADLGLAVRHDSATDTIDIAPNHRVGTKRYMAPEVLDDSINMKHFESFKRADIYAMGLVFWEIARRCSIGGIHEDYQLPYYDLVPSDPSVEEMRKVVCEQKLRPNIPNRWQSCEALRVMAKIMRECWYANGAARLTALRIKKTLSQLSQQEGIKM
# Method: Selected compounds of the present disclosure were assayed for inhibitory activity against ALK5 and ALK2. Activity determinations and selectivity were conducted by Thermo Fisher Scientific SelectScreen™ Biochemical Kinase Profiling Service using their LanthaScreen™ Eu Kinase Binding Assay Screening.
# Binding of an Alexa Fluor™ conjugate or “tracer” to a kinase is detected by addition of a Eu-labeled anti-tag antibody. Binding of the tracer and antibody to a kinase results in a high degree of FRET, whereas displacement of the tracer with a kinase inhibitor results in a loss of FRET. This assay is carried out by mixing the compound tested with the reagents and reading; no development step is required.
# Life Technologies' Kinase Tracers are based on ATP-competitive kinase inhibitors, making them suitable for detection of any compounds that bind to the ATP site. Inhibitors that bind the ATP site include both Type I kinase inhibitors, which bind solely to the ATP site, and Type II inhibitors (e.g., Gleevec®/Imatinib, Sorafenib, BIRB-796), which bind to both the ATP site and a second site often referred to as the allosteric site.
# The test compounds were screened in 1% DMSO (final) in the well. For 10-point titrations, 3-fold serial dilutions were conducted from the starting concentration (see Table 2 below).
# All Kinase/Antibody Mixtures were diluted to a 2× working concentration in the specified kinase buffer. The 4× AlexaFluor labeled Tracer was prepared in Kinase Buffer.
# • Bar-coded, low volume, white, 384-well plate (Greiner Cat. #784207) • 1. 160 nL—100× Test Compound in 100% DMSO • 2. 3.84 μL—Kinase Buffer • 3. 8.0 μL—2× Kinase/Antibody Mixture • 4. 4.0 μL—4× Tracer • 5. 30-second plate shake • 6. 60-minute incubation at room temperature • 7. Read on fluorescence plate reader and analysis of the data
# The following controls were made for each individual kinase and were located on the same plate as the kinase:
# 100% Displacement Control: The minimum Emission Ratio was established by the 100% Displacement Control wells, which contained the highest concentration of the known inhibitor used in that assay.
# Known Inhibitor: A known inhibitor control standard curve, 10-point titration, was run for each individual kinase on the same plate as the kinase to ensure the inhibitor was displaced within an expected IC50 range previously determined.
# The following equations were used for each set of data points: […]
# Data generated were plotted using the graphing software XLfit from IDBS. The dose response curve was curve fit to model number 205.
# [3] = system: JAK signaling; assay: JAK selectivity assay, HEK blue IL-12 reporter; format: cell-based; settings: HEK-Blue, 24 h, 12.5 ng/ml IL-12, 24 h
# Method: The cells were purchased from Invivogen (Catalog Nr: hkb-il12) and maintained according to vendor instructions. On the day of the experiment, cells were harvested by repeated tapping of the flask to shake loose the cells attached to the bottom of the flask. Then, cells were harvested, washed and resuspended in DMEM media supplemented with 10% fetal calf serum. 30 Microliters of cell suspension was seeded into a 384-well tissue culture-coated plate containing approximately 10,000 total cells. […] Using the ECHO “Dose Response” software, the test compound was added in duplicate wells with a 3-fold dilution curve. DMSO was back-filled to normalize the DMSO across all wells. […] After 30 minutes of incubation at room temperature, the optical density was measured at 620 nanometer using the Perkin Elmer Envision plate reader. A color change can be detected at this wavelength when secreted alkaline phosphatase, which is triggered by IL-12 signaling, is present in the supernatant. […]
# [4] = system: A549 lung fibroblasts; assay: Epithelial to mesenchymal transition gene expression in A549; format: cell-based; settings: 5 ng/ml TGF-beta1, 48 h, up to 5 micromolar
# Method: To evaluate whether Compounds 01 and 04 could inhibit epithelial to mesenchymal transition (EMT), an in vitro model using A549 lung fibroblasts was utilized. A549 cells were purchased from ATCC (CCL-185), and grown in RPMI media supplemented with 10 percent fetal bovine serum (FBS). On the day of the experiment, ten thousand A549 cells were seeded in eighty microliters total volume into a flat, tissue culture coated, ninety-six-well plate. Drugs, including positive control compounds vactosertib, PF-06952229 and LY3200882, were added in an eight point, one to three dilution series with the highest concentration of each drug being five micromolar, bringing the total volume of each well to ninety microliters. DMSO, which served to dissolve the 10 millimolar stock solution of each drug, was normalized across all wells After one hour of drug pretreatment, recombinant human TGF-beta1 was added to a final concentration of five nanograms per milliliter, bringing the volume to one hundred microliters. Recombinant human TGF-beta 1 was purchased from R&D Systems (7754-BH-005) and its stock solution was prepared according to manufacturer's instructions and diluted in RPMI media supplemented with 10% FBS. The ninety-six well plate with one hundred microliter volume was incubated at 37° C. at 5% CO2 for forty-eight hours. At the end of the incubation period, gene expression levels of various EMT markers were assessed using a custom designed QuantiGene Plex Gene Expression Assay. The genes chosen were CDH1 (E-cadherin), CDH2 (N-Cadherin), SNAI1 (Snail), SNAI2 (Slug), VIM (Vimentin), SPARC, GALNT6, CTNNB1 (beta-catenin), TGFB1, and MAML3.
# Briefly, cell lysate was prepared using the QuantiGene Sample Processing Kit —Cultured Cells (QS0100) in the ninety-six well plate. Cell lysates were then subjected to bead hybridization, multiple probe hybridization steps and SAPE labeling following manufacturer's instruction. The plate was read on a Luminex MAGPIX instrument.
SMILES,EC50 [1],IC50 [2],IC50 [3],CDH1 (E-Cadherin) gene expression [4],"expression of the nine genes induced with EMT (CDH2, SNAI1, SNAI2, VIM, SPARC, GALNT6, CTNNB1, TGFB1, MAML3) [4]"
"Cc1nn(CC(F)(F)F)cc1Nc1cc(Nc2cnnc3c(Cl)cccc23)ccn1 [Compound 02, N2-[3-methyl-1-(2,2,2-trifluoroethyl)-1H-pyrazol-4-yl]-N4-(8-chlorocinnolin-4-yl)pyridine-2,4-diamine]",50 to 100 nM,< 5 nM,–,–,–
"Cc1cccc2c(Nc3ccnc(Nc4cccc(N5CCOCC5)c4)c3)cnnc12 [Compound 03, N4-(8-methylcinnolin-4-yl)-N2-[3-(morpholin-4-yl)phenyl]pyridine-2,4-diamine]",< 50 nM,2 to 5 nM,–,–,–
"Cc1cccc2c(Nc3ccnc(Nc4ccc(N5CCN(C)CC5)cc4)c3)cnnc12 [Compound 06, N4-(8-methylcinnolin-4-yl)-N2-[4-(4-methylpiperazin-1-yl)phenyl]pyridine-2,4-diamine]",< 50 nM,2 to 5 nM,–,–,–
"Cc1cccc2c(Nc3ccnc(Nc4cccc(C5CCOCC5)c4)c3)cnnc12 [Compound 07, N4-(8-methylcinnolin-4-yl)-N2-[3-(oxan-4-yl)phenyl]pyridine-2,4-diamine]",50 to 100 nM,2 to 5 nM,–,–,–
"Cc1cccc2c(Nc3ccnc(Nc4ccc(C5CCOCC5)cc4)c3)cnnc12 [Compound 08, N4-(8-methylcinnolin-4-yl)-N2-[4-(oxan-4-yl)phenyl]pyridine-2,4-diamine]",< 50 nM,2 to 5 nM,–,–,–
"Cc1cnc(Nc2ccc(OCCN3CCCC3)cc2)nc1Nc1cccc(S(=O)(=O)NC(C)(C)C)c1 [Fedratinib, fedratinib]",–,–,< 300 nM,–,–
"CC(C)(O)c1cc(Nc2cc(Oc3cn(C4CC4)nc3C3CCOCC3)ccn2)ccn1 [LY3200882, reference compound]",–,–,–,inhibition of downregulation of CDH1 (E-Cadherin),inhibition of induction of the nine genes that are induced with EMT
"CC(C)c1cnc(-c2cc(Cl)ccc2F)cc1Nc1ccncc1C(=O)NC(CO)CO [PF-06952229, reference compound]",–,–,–,inhibition of downregulation of CDH1 (E-Cadherin),inhibition of induction of the nine genes that are induced with EMT

# — patent US20240197729A1, “ALK-5 Inhibitors and Uses Thereof” (Sumitomo Pharma Oncology, Inc., priority 2021, published 2024)
